According to patent US12364213B2, “Container for growth of cryo-sprouts” (RÄ FOODS HOLDINGS LLC, priority 2015, dated 2025):

Key:
[1] = tested on: L. monocytogenes; test: L. monocytogenes cocktail challenge on sprouts grown from soaked seeds (MPN and direct plating); assay type: cell-based, Listeria monocytogenes
Protocol: (§1) Isolates used to inoculate cryo-sprouts were grown in pure culture and quantitated in order to determine dilutions required to achieve a target level when inoculated into the product.
(§2) The study encompassed three treatments exposed to two different temperatures over the course of 28 days, with weekly pulls, see Table 1 below.
(§3) Initial counts were determined immediately after inoculation for each treatment on Day 0, and again after incubation at 40° F. for 21 days, and 50° F. for 12 days. Subsequent pulls occurred on a weekly basis from Day 0 (after the 21 days at 40° F. or after 12 days at 50° F.) through Day 28.
(§4) The pulls occurred on Shelf Life Day 0, 7, 14, 21, and 28.
(§5) One milliliter from each of the five Salmonella cultures was combined to form a cocktail. The Listeria monocytogenes and E. coli O157:H7 cultures were similarly combined to form a second and third cocktail. These three cocktails were diluted and added to the trays containing 60 ml of deionized water.
(§6) Plastic trays with membrane were filled with 35 grams of soaked sprout seeds representing each of the three treatment groups.
(§7) Sixty milliliters of deionized water was added to each tray along with a final concentration of approximately 1.0 E+3-1.0 E+4 cfu/ml of each of the three cocktails (Salmonella and Listeria together in one set, and E. coli O157:H7 into another set).
(§8) Listeria samples were serially diluted and plated on a TSA basal layer and capped with Modified Oxford Medium (MOX), incubated at 95° F. (35° C.) for 2 days. An MPN, consisting of a combination of the three samples, was also set up on each pull day due to the high number of other organisms present in the samples which obscured the direct counts.

[2] = tested on: Salmonella, Listeria monocytogenes, and E. coli O157:H7; test: Pathogen challenge study, overall impact of soak treatments versus Control; assay type: cell-based; settings: seed soak treatments; 40° F. and 50° F.
[3] = tested on: total aerobic bacteria; test: Aerobic Plate Count at Shelf Life Day 28 on samples grown at 40° F.; assay type: cell-based
Protocol: Aerobic Plate Counts were also analyzed at Shelf Life Day 28 on the samples grown at 40° F. by plating to Standard Methods Agar and incubated at 95° F. for 2 days to determine the total aerobic bacteria present in the samples.

[4] = tested on: E. coli O157:H7; test: E. coli O157:H7 cocktail challenge on sprouts grown from soaked seeds (MPN and direct plating); assay type: cell-based
Protocol: as §1, §2, §3, §4, §5, §6, §7
as §8, with “E. coli O157:H7” for “Listeria”, “EMB,” for “Modified Oxford Medium (MOX),”

[5] = tested on: Salmonella spp.; test: Salmonella spp. cocktail challenge on sprouts grown from soaked seeds (MPN and direct plating); assay type: cell-based
Protocol: as §1, §2, §3, §4, §5, §6, §7
Salmonella samples were serially diluted and spread plated on a Tryptic Soy Agar (TSA) basal layer and capped with XLD, incubated at 95° F. (35° C.) for 2 days. An MPN (Most probable number), consisting of a combination of the three samples, was also set up on each pull day due to the high number of other organisms present in the samples which obscured the direct counts.

[6] = grown 12 days at 50° F., held at 40° F.
[7] = grown 12 days at 50° F., Shelf Life Day 0
[8] = grown 12 days at 50° F., Shelf Life Day 7 at 40° F.
[9] = grown 12 days at 50° F., Shelf Life Day 14 at 40° F.
[10] = grown 12 days at 50° F., Shelf Life Day 21 at 40° F.
[11] = grown 12 days at 50° F., Shelf Life Day 28
[12] = grown 12 days at 50° F., Shelf Life Day 28 at 40° F.
[13] = grown 21 days at 40° F., Shelf Life Day 0 at 40° F.
[14] = grown 21 days at 40° F., Shelf Life Day 7 at 40° F.
[15] = grown 21 days at 40° F., Shelf Life Day 14 at 40° F.
[16] = grown 21 days at 40° F., Shelf Life Day 21
[17] = grown 21 days at 40° F., Shelf Life Day 21 at 40° F.
[18] = grown 21 days at 40° F., Shelf Life Day 28
[19] = grown 21 days at 40° F., Shelf Life Day 28 at 40° F.
[20] = grown 21 days at 40° F., held at 40° F. through Shelf Life Day 28, from Day 0 to below detectable limit
[21] = grown 21 days at 40° F., held at 40° F., end of study, below detectable limit

CC(=O)O [Acetic Acid, acetic acid]
L. monocytogenes increase through Shelf Life Day 21 [1, 6]: approximately 2.5 logs
L. monocytogenes (MPN/g) or (CFU) [1, 7]: > 1,100 MPN/g
Log10 (L. monocytogenes MPN/g) or (CFU) [1, 7]: 3.04 Log10 MPN/g
L. monocytogenes (MPN/g) or (CFU) [1, 8]: 24,000 MPN/g
Log10 (L. monocytogenes MPN/g) or (CFU) [1, 8]: 4.38 Log10 MPN/g
L. monocytogenes (MPN/g) or (CFU) [1, 9]: > 110,000 MPN/g
Log10 (L. monocytogenes MPN/g) or (CFU) [1, 9]: 5.04 Log10 MPN/g
L. monocytogenes average, direct plating ([1]; grown 12 days at 50° F., Shelf Life Day 21): 2.1 E+5 cfu/g
L. monocytogenes (MPN/g) or (CFU) [1, 10]: 2.4 E+5 MPN/g
Log10 (L. monocytogenes MPN/g) or (CFU) [1, 10]: 5.38 Log10 MPN/g
L. monocytogenes (MPN/g) or (CFU) ([1]; grown 12 days at 50° F., Shelf Life Day 21 at 40° F., listed as Acetic): 240,000 MPN/g
L. monocytogenes log increase, direct plating method [1, 11]: 5.14 logs
L. monocytogenes overall log increase, MPN method ([1]; grown 12 days at 50° F., Shelf Life Day 28, from inoculated controls): 1.82 logs
L. monocytogenes direct counts, avg. log value ([1]; grown 12 days at 50° F., Shelf Life Day 28, obscured by background flora, possible overestimation): 7.95
L. monocytogenes (MPN/g) or (CFU) [1, 12]: 43,000 MPN/g
Log10 (L. monocytogenes MPN/g) or (CFU) [1, 12]: 4.63 Log10 MPN/g
L. monocytogenes (MPN/g) or (CFU) [1, 13]: 230 MPN/g
Log10 (L. monocytogenes MPN/g) or (CFU) [1, 13]: 2.36 Log10 MPN/g
L. monocytogenes (MPN/g) or (CFU) [1, 14]: 4.3 MPN/g
Log10 (L. monocytogenes MPN/g) or (CFU) [1, 14]: 0.63 Log10 MPN/g
L. monocytogenes log increase, direct plating ([1]; grown 21 days at 40° F., Shelf Life Day 14): 1.33 logs
L. monocytogenes direct plating counts, average ([1]; grown 21 days at 40° F., Shelf Life Day 14, 21, and 28): approximately 4 logs
L. monocytogenes (MPN/g) or (CFU) [1, 15]: > 1,100 MPN/g
Log10 (L. monocytogenes MPN/g) or (CFU) [1, 15]: 3.04 Log10 MPN/g
L. monocytogenes direct plating count [1, 16]: 4.04 logs
L. monocytogenes log increase, direct plating [1, 16]: 1.23 logs
L. monocytogenes (MPN/g) or (CFU) [1, 17]: 930 MPN/g
Log10 (L. monocytogenes MPN/g) or (CFU) [1, 17]: 2.97 Log10 MPN/g
L. monocytogenes direct count log value [1, 18]: 4.50 logs
L. monocytogenes log increase, direct plating [1, 18]: 1.69 logs
L. monocytogenes overall log increase, MPN method [1, 18]: > 0.23 logs
L. monocytogenes (MPN/g) or (CFU) [1, 19]: > 1,100 MPN/g
Log10 (L. monocytogenes MPN/g) or (CFU) [1, 19]: 3.04 Log10 MPN/g
impact on the counts in comparison to the Control treatment [2]: did not appear to have a significant impact
Aerobic Plate Count, average [3]: 8.1 E+8 cfu/g
Aerobic Plate Count, avg. log value [3]: 8.91
E. coli O157:H7 avg. log values for each pull day [4, 6]: 3-5 logs
E. coli O157:H7 (MPN/mL) or (CFU) [4, 7]: 1,100 MPN/mL
Log10 (E. coli O157:H7 MPN/g) or (CFU) [4, 7]: 3.04 Log10 MPN/g
E. coli O157:H7 (MPN/mL) or (CFU) [4, 8]: 110,000 MPN/mL
Log10 (E. coli O157:H7 MPN/g) or (CFU) [4, 8]: 5.04 Log10 MPN/g
E. coli O157:H7 (MPN/mL) or (CFU) [4, 9]: 46,000 MPN/mL
Log10 (E. coli O157:H7 MPN/g) or (CFU) [4, 9]: 4.66 Log10 MPN/g
E. coli O157:H7 (MPN/mL) or (CFU) [4, 10]: 930 MPN/mL
Log10 (E. coli O157:H7 MPN/g) or (CFU) [4, 10]: 2.97 Log10 MPN/g
E. coli O157:H7 level, MPN method [4, 11]: 2,400 MPN/g
E. coli O157:H7 overall log reduction, MPN method ([4]; grown 12 days at 50° F., Shelf Life Day 28, from Day 0 inoculated control): 1.73 logs
E. coli O157:H7 (MPN/mL) or (CFU) [4, 12]: 2,400 MPN/mL
Log10 (E. coli O157:H7 MPN/g) or (CFU) [4, 12]: 3.38 Log10 MPN/g
E. coli O157:H7 overall log reduction [4, 20]: 4.16 logs
E. coli O157:H7 level, MPN [4, 21]: < 0.3 MPN/g
E. coli O157:H7 level, direct plating [4, 21]: < 10 cfu/g
E. coli O157:H7 (MPN/mL) or (CFU) [4, 13]: <30 MPN/mL
Log10 (E. coli O157:H7 MPN/g) or (CFU) [4, 13]: 0.95 Log10 MPN/g
E. coli O157:H7 (MPN/mL) or (CFU) [4, 14]: 9.3 MPN/mL
Log10 (E. coli O157:H7 MPN/g) or (CFU) [4, 14]: 0.97 Log10 MPN/g
E. coli O157:H7 (MPN/mL) or (CFU) [4, 15]: 0.30 MPN/mL
Log10 (E. coli O157:H7 MPN/g) or (CFU) [4, 15]: −0.5 Log10 MPN/g
E. coli O157:H7 (MPN/mL) or (CFU) [4, 17]: <0.3 MPN/mL
Log10 (E. coli O157:H7 MPN/g) or (CFU) [4, 17]: <−0.5 Log10 MPN/g
E. coli O157:H7 (MPN/mL) or (CFU) [4, 19]: <0.3 MPN/mL
Log10 (E. coli O157:H7 MPN/g) or (CFU) [4, 19]: <−0.5 Log10 MPN/g
Salmonella spp. counts at each pull date via MPN and plating methods [5, 6]: 1.4-3 logs
Log10 (Salmonella MPN/g) or (CFU) [5, 7]: 3.04 Log10 MPN/g
Salmonella (MPN/g) or (CFU) [5, 7]: 1,100 MPN/g
Log10 (Salmonella MPN/g) or (CFU) [5, 8]: 2.63 Log10 MPN/g
Salmonella (MPN/g) or (CFU) [5, 8]: 430 MPN/g
Log10 (Salmonella MPN/g) or (CFU) [5, 9]: 2.46 Log10 MPN/g
Salmonella (MPN/g) or (CFU) [5, 9]: 290 MPN/g
Log10 (Salmonella MPN/g) or (CFU) [5, 10]: 2.04 Log10 MPN/g
Salmonella (MPN/g) or (CFU) [5, 10]: 110 MPN/g
Log10 (Salmonella MPN/g) or (CFU) [5, 12]: 1.63 Log10 MPN/g
Salmonella (MPN/g) or (CFU) [5, 12]: 43 MPN/g
Salmonella spp. overall log reduction [5, 20]: 3.87 logs
Salmonella spp. level, direct plating [5, 21]: < 10 cfu/g
Log10 (Salmonella MPN/g) or (CFU) [5, 13]: 2.18 Log10 MPN/g
Salmonella (MPN/g) or (CFU) [5, 13]: 150 MPN/g
Log10 (Salmonella MPN/g) or (CFU) [5, 14]: 0.96 Log10 MPN/g
Salmonella (MPN/g) or (CFU) [5, 14]: 9.2 MPN/g
Log10 (Salmonella MPN/g) or (CFU) [5, 15]: <−0.5 Log10 MPN/g
Salmonella (MPN/g) or (CFU) [5, 15]: <0.3 MPN/g
Log10 (Salmonella MPN/g) or (CFU) [5, 17]: <−0.5 Log10 MPN/g
Salmonella (MPN/g) or (CFU) [5, 17]: <0.3 MPN/g
Log10 (Salmonella MPN/g) or (CFU) [5, 19]: <−0.5 Log10 MPN/g
Salmonella (MPN/g) or (CFU) [5, 19]: < 0.3 MPN/g
Salmonella (MPN/g) or (CFU) ([5]; grown 21 days at 40° F., Shelf Life Day 28 at 40° F., listed as Acetic): <0.3 MPN/g
